Measured values reported in US8263606B2 (Xenon Pharmaceuticals Inc., priority 2008, dated 2012).

Tests used:
sodium channel = test: Guanidine influx assay (14C-guanidine radiotracer flux, in vitro); format: cell-based, human or rat; details: guanidine influx assay using a known cell line that expresses a sodium channel
Procedure, shortened: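 Aconitine holds channels open while 14C-guanidine enters human or rat sodium-channel-expressing cells in choline-substituted low-sodium saline, with test agent present at ambient temperature. Retained tracer is scintillation-counted and IC50 fitted by a four-parameter logistic model.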

CYP3A4 = CYP3A4 (Homo sapiens, UniProt P08684); test: Cytochrome P450 (CYP450) Inhibition Assay, CYP3A4 (Vivid fluorescence, BOMCC substrate); details: human, P450 Baculosomes (recombinant CYP3A4), probe BOMCC (Vivid substrate)
CYP3A4, sequence (P08684 whole entry): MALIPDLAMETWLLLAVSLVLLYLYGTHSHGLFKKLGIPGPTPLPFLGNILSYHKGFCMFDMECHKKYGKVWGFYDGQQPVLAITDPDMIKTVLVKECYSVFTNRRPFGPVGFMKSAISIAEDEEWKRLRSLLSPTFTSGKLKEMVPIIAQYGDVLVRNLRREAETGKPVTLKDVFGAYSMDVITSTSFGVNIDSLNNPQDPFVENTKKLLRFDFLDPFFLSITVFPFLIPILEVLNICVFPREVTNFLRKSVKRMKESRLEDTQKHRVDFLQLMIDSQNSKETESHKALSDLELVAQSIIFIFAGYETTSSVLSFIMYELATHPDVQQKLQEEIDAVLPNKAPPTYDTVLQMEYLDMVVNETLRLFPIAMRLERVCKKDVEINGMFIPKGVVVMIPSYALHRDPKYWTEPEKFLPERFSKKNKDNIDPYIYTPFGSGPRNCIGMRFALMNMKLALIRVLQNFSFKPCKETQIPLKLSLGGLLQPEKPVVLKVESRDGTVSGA

Structure (SMILES) | IC50 (sodium channel; activity level class) | melting point | inhibition at 10 µM (CYP3A4) | IC50 (sodium channel)
CC(C)CCN1C(=O)[C@]2(COc3cc4c(cc32)CCO4)c2ccccc21 [Example 5.2, (3R)-1-(3-methylbutyl)-5,6-dihydrospiro[benzo[1,2-b:5,4-b′]difuran-3,3′-indol]-2′(1′H)-one] | 1000 to 10000 nM | 86 to 87 °C | > 50% | –
O=C1N(C[C@H]2CCCO2)c2ccccc2C12COc1cc(O)ccc12 (stereo partly drawn) [Example 11.53, 6-hydroxy-1′-[(2R)-tetrahydrofuran-2-ylmethyl]spiro[1-benzofuran-3,3′-indol]-2′(1′H)-one] | – | 72 to 74 °C | < 50% | 100 to 1000 nM
CCCCCN1C(=O)[C@]2(COc3cc4c(cc32)CCO4)c2ccccc21 [Example 5.3, (3R)-1′-pentyl-5,6-dihydrospiro[benzo[1,2-b:5,4-b′]difuran-3,3′-indol]-2′(1′H)-one] | 1000 to 10000 nM | 128 to 129 °C | > 50% | –
Cc1noc2cc3c(cc12)C1(CO3)C(=O)Nc2ccccc21 (stereo not drawn) [Example 3.6, 3-methylspiro[furo[3,2-f][1,2]benzisoxazole-5,3′-indol]-2′(1′H)-one] | 100 to 1000 nM | 226 to 227 °C | < 50% | –
O=C1N(Cc2ccc(Cl)s2)c2cccc(-c3ccoc3)c2C12COc1cc3c(cc12)OCO3 (stereo not drawn) [Example 16.13, 1′-[(5-chloro-2-thienyl)methyl]-4′-(3-furyl)spiro[furo[2,3-f][1,3]benzodioxole-7,3′-indol]-2′(1′1-1)-one] | – | 166 to 168 °C | > 50% | 100 to 1000 nM
Cc1cc(CN2C(=O)C3(COc4cc5c(cc43)OCO5)c3ccccc32)c(C)n1C(C)C (stereo not drawn) [Example 1.3, 1′-{[2,5-dimethyl-1-(1-methylethyl)-1H-pyrrol-3-yl]methyl}spiro[furo[2,3-f][1,3]benzodioxole-7,3′-indol]-2′(1′H)-one] | 1 to 100 nM | 169 to 171 °C | > 50% | –
C[C@@H](CN1C(=O)C2(COc3cc4c(cc32)CCO4)c2ccccc21)OCOCc1ccccc1 (stereo partly drawn) [Example 4.25, 1′-{(2S)-2-[(benzyloxy)methoxy]propyl}-5,6-dihydrospiro[benzo[1,2-b:5,4-b′]difuran-3,3′-indol]-2′(1′H)-one] | 100 to 1000 nM | 49 to 52 °C | > 50% | –
N#Cc1cccc2c1N(Cc1ccc(Cl)s1)C(=O)C21COc2cc3c(cc21)OCO3 (stereo not drawn) [Example 4.87, 1′-[(5-chloro-2-thienyl)methyl]-2′-oxo-1′,2′-dihydrospiro[furo[2,3-f][1,3]benzodioxole-7,3′-indole]-7′-carbonitrile] | 1 to 100 nM | 192 to 193 °C | > 50% | –
COCCOCCN1C(=O)C2(COc3cc4c(cc32)OCCO4)c2c(OC)ccc(OC)c21 (stereo not drawn) [Example 2.64, 4′,7′-dimethoxy-1′-[2-(2-methoxyethoxy)ethyl]-2,3-dihydrospiro[furo[2,3-g][1,4]benzodioxine-8,3′-indol]-2′(1′H)-one] | 100 to 1000 nM | 109 to 110 °C | < 50% | –
O=C1N(Cc2ccc(OCc3ccccc3)cn2)c2ccccc2C12COc1ccc3nonc3c12 (stereo not drawn) [Example 9.67, 1-{[5-(benzyloxy)pyridin-2-yl]methyl}spiro[furo[3,2-e][2,1,3]benzoxadiazole-8,3′-indol]-2′(1′H)-one] | – | 209 to 212 °C | < 50% | 100 to 1000 nM
COc1cc2c(cc1F)C1(CO2)C(=O)Nc2ccccc21 (stereo not drawn) [Example 3.7, 5-fluoro-6-methoxyspiro[1-benzofuran-3,3′-indol]-2′(1′H)-one] | 1000 to 10000 nM | 222 to 225 °C | < 50% | –
Cc1noc2cc3c(cc12)C1(CO3)C(=O)N(Cc2ncccc2F)c2ccccc21 (stereo not drawn) [Example 9.57, 1′-[(3-fluoropyridin-2-yl)methyl]-3-methylspiro[furo[3,2-f][1,2]benzisoxazole-5,3′-indol]-2′(1′H)-one] | – | 167 to 169 °C | < 50% | 100 to 1000 nM
O=C1N(C[C@H]2CCCO2)c2cc3c(cc2C12COc1cc4c(cc12)CCO4)OCCO3 (stereo partly drawn) [Example 2.26, 6-(((R)-tetrahydrofuran-2-yl)methyl)-2,3,5′,6′-tetrahydro-2′H-spiro[[1,4]dioxino[2,3-f]indole-8,3′-benzofuro[6,5-b]furan]-7(6H)-one] | 1000 to 10000 nM | 220 to 225 °C | < 50% | –
O=C1N(Cc2cnccn2)c2ccccc2[C@]12COc1cc3c(cc12)OCCO3 [Example 5.16, (8S)-1′-(pyrazin-2-ylmethyl)-2,3-dihydrospiro[furo[2,3-g][1,4]benzodioxine-8,3′-indol]-2′(1′H)-one] | 1 to 100 nM | 216 to 218 °C | < 50% | –
O=C1N(Cc2ccc(-c3ccccn3)cc2)c2ccccc2C12COc1cc3c(cc12)CCO3 (stereo not drawn) [Example 9.4, 1-(4-pyridin-2-ylbenzyl)-5,6-dihydrospiro[benzo[1,2-b:5,4-b′]difuran-3,3′-indol]-2′(1′H)-one] | 100 to 1000 nM | 217 to 219 °C | < 50% | –
N#Cc1cccc(CN2C(=O)[C@@]3(COc4cc5c(cc43)OCCO5)c3ccccc32)c1 [Example 4.106, 3-{[(8S)-2′-oxo-2,3-dihydrospiro[furo[2,3-g][1,4]benzodioxine-8,3′-indol]-1′(2′H)-yl]methyl}benzonitrile] | 1 to 100 nM | 94 to 96 °C | < 50% | –
CC1(C)OC[C@H](CN2C(=O)C3(COc4cc5c(cc43)OCCO5)c3ccccc32)O1 (stereo partly drawn) [Example 9.45, 1′-{[(4S)-2,2-dimethyl-1,3-dioxolan-4-yl}methyl]-2,3-dihydrospiro[furo[2,3-g][1,4]benzodioxine-8,3′-indol]-2′(1′H)-one] | 1 to 100 nM | 55 to 57 °C | > 50% | –
O=C1N(Cc2sccc2Cl)c2ccccc2C12COc1cc3c(cc12)OCO3 (stereo not drawn) [Example 6.3, 1′-[(3-chlorothiophen-2-yl)methyl]spiro[furo[2,3-f][1,3]benzodioxole-7,3′-indol]-2′(1′H)-one] | 1 to 100 nM | 161 to 163 °C | > 50% | –
O=C1N(Cc2ncccc2C(F)(F)F)c2c(F)cccc2C12COc1cc3c(cc12)OCCO3 (stereo not drawn) [Example 8.16, 7′-fluoro-1-((3-(trifluoromethyl)pyridin-2-yl)methyl)-3,7-dihydro-2H-spiro[benzofuro[5,6-b][1,4]dioxine-8,3′-indolin]-2′-one] | 1 to 100 nM | 241 to 243 °C | < 50% | –
COCCOc1ccc2c(c1)OCC21C(=O)N(Cc2ccccn2)c2ccccc21 (stereo not drawn) [Example 5.34, 6-(2-methoxyethoxy)-1′-(pyridin-2-ylmethyl)spiro[1-benzofuran-3,3′-indol]-2′(1′H)-one] | 100 to 1000 nM | 94 to 95 °C | < 50% | –
O=C1N(CCCO)c2ccccc2C12COc1cc3c(cc12)OCCO3 (stereo not drawn) [Example 17.2, 1′-(3-hydroxypropyl)-2,3-dihydrospiro[furo[2,3-g][1,4]benzodioxine-8,3′-indol]-2′(1′H)-one] | – | 157 to 158 °C | < 50% | 1 to 100 nM
O=C1N(C(c2ccccc2)c2ccccc2)c2ccccc2C12COc1ccc(F)cc12 (stereo not drawn) [Example 2.9, 1′-(diphenylmethyl)-5-fluorospiro[1-benzofuran-3,3′-indol]-2′(1′H)-one] | 1000 to 10000 nM | 182 to 184 °C | < 50% | –
O=C1N(Cc2ccc(-c3ccno3)cc2)c2ccccc2C12COc1cc3c(cc12)OCCO3 (stereo not drawn) [Example 4.97, 1′-(4-isoxazol-5-ylbenzyl)-2,3-dihydrospiro[furo[2,3-g][1,4]benzodioxine-8,3′-indol]-2′(1′H)-one] | 1 to 100 nM | 209 to 212 °C | < 50% | –
CC(C)(C)c1nc(CN2C(=O)C3(COc4cc5c(cc43)OCO5)c3ccccc32)no1 (stereo not drawn) [Example 11.23, 1′-[(5-tert-butyl-1,2,4-oxadiazol-3-yl)methyl]spiro[furo[2,3-f][1,3]benzodioxole-7,3′-indol]-2′(1′H)-one] | – | 183 to 185 °C | > 50% | 1 to 100 nM
O=C1N(Cc2ccc(Cl)s2)c2cccc(Cl)c2C12COc1cc3c(cc12)OCO3 (stereo not drawn) [Example 4.89, 4′-chloro-1′-[(5-chloro-2-thienyl)methyl]spiro[furo[2,3-f][1,3]benzodioxole-7,3′-indol]-2′(1′H)-one] | 1 to 100 nM | 167 to 168 °C | > 50% | –
CN1CCOc2cc3c(cc21)C1(CO3)C(=O)N(Cc2ccc(C(F)(F)F)o2)c2ccccc21.Cl (stereo not drawn) [Example 2.28, 1-methyl-1′-{[5-(trifluoromethyl)furan-2-yl]methyl}-2,3-dihydro-1H-spiro[furo[3,2-g][1,4]benzoxazine-8,3′-indol]-2′(1′H)-one hydrochloride] | 100 to 1000 nM | 105 °C (dec.) | > 50% | –
CN1C(=O)COc2cc3c(cc21)C1(CO3)C(=O)N(C[C@H]2CCCO2)c2ccccc21 (stereo partly drawn) [Example 4.59, 1-methyl-1′-[(2R)-tetrahydrofuran-2-ylmethyl]-1H-spiro[furo[3,2-g][1,4]benzoxazine-8,3′-indole]-2,2′(1′H-3H)-dione] | 1000 to 10000 nM | 79 to 81 °C | < 50% | –
COc1cc2c(cc1C)[C@]1(CO2)C(=O)Nc2ccccc21 [Example 3.26, (3R)-6-methoxy-5-methylspiro[1-benzofuran-3,3′-indol]-2′(1′H)-one] | 1000 to 10000 nM | > 250 °C | > 50% | –
